SMILES strings stand for the structures. Counter-ions that a name gives are not always drawn.

This note sets out measurements from patent US7989446B2, “4-amino 5-cyanopyrimidine derivatives” (Otsuka Pharmaceutical Co., Ltd., priority 2004, dated 2011).

In test [1] the target is T1, adenosine A2a receptor (Human) (Homo sapiens, UniProt P29274).
T1 construct: host or cells: HEK293
The experiment in a line: c-AMP generating action in cell expressing adenosine A2a receptor. The note with it: HEK293 cell expressing human A2a; 100% = c-AMP caused by 1 μM CGS-21680; read-out: A2a Agonistic Action (EC50). The class given is cell-based. Here is the method:
(1) c-AMP Generating Action in Cell Expressing Adenosine A2a Receptor
The test was carried out as mentioned below with reference to the method disclosed in the reference (Klotz k. N. et al., Naunyn-Schmiedeberg's Arch. Pharmacol., (1998) 357, 1-9; Shryock J. C. et al., Molecular Pharmacology, (1998) 53, 886-893).
As to the cell, HEK293 cell expressing adenosine A2a receptor (Human) (PerkinElmer Life Sciences, Code No. RBHA2AC) was used.
As to the culture medium, Dulbecco's modified Eagles medium (DMEM) including 10% FBS (Fetal bovine serum) and 1 mM of sodium pyruvate was used.
The cell was placed on 96 well plate (1×10^5/well), and cultured overnight. After removing off the supernatant, to each well, 0.1 ml of DMEM (without FBS) containing 20 mM HEPES, 0.1 mM of IBMX (3-isobutyl-1-methylxanthine) and 2 unit/mL adenosine deaminase was added, and they were incubated at 37° C. for 30 minutes. To each well, 0.1 ml of the culture medium including the DMSO solution of the test compound in an appropriate concentration was added and they were incubated for additional 30 minutes. After removing off the supernatant, the cytolytic solution was added to quench the reaction. The amount of c-AMP in each well was measured by using the c-AMP enzyme immunoassay (EIA) system (Amersham Biosciences, Code No. RPN225).
The same assay was repeated using CGS-21680 (2-p-carboxyethyl)phenethylamino-5′-N-ethylcarboxamidoadenosine hydrochloride, (Sigma, code C141) as reference compound. The amount of resultant c-AMP in the medium, caused by 1 μM of reference compound, was defined to be 100%. A concentration of assayed compound in the medium, producing 50% c-AMP amounts, was calculated to be EC50 value.

Test [2] concerns Intraocular Pressure in Rabbit. As to the kind of experiment: Measuring test for intraocular pressure in rabbit. The note with it: 0.03% ophthalmic solution, rabbit, instillation, difference from pre-instillation, mean±standard error. The class given is in vivo, Female New Zealand white rabbits. The method, then: (3) Measuring Test for Intraocular Pressure in Rabbit
The test compounds were dissolved in 10 mM of phosphate buffer (pH 7.5) (hereinafter, referred to as “vehicle of ophthalmic preparation”), and they were instilled in a given concentration. In addition, the compounds insoluble in that concentration was used as a suspension. Female New Zealand white rabbits (KITAYAMA LABES Co., Ltd.) whose weights were 2.0-4.0 kg were used.
The measurement of the intraocular pressure was carried out using Pneumatonometer (Model 30 Classic, Mentor company) without anesthesia. In addition, before the measurement of the intraocular pressure, the surface anesthesia with 0.4% oxybuprocaine hydrochloride (“Benoxil” 0.4% ophthalmic solution, Santen Pharmaceutical Co., Ltd.) was carried out.
The animals whose intraocular pressure was stable before instillation were selected, and these animals were divided to every 4 animal in each one group, 50 μL of eye drops including each the test compound was administered to one-sided eye and vehicle was administered to contralateral eye as the control eye. The measurement of intraocular pressure was carried out before instillation and after 0.5, 1, 2, 3, 4 and 6 hours from instillation. The effect on the intraocular pressure was shown as the difference from pre-instillation (ΔIOP, mmHg, mean±standard error). The following Tables 14 and 15 show the results of Control Compounds A and B used as 1% suspensions which are the same as in the pharmacological test (1).
The animals were pretreated as mentioned above, and among them animals whose intraocular pressure was stable before instillation were selected, and these animals were divided to every 5 to 8 animal in each one group. Every two group was used for each of the test compounds. The test compound was administered unilaterally to the eye of the test group rabbit and the intraocular pressure was measured. The vehicle was administered unilaterally to the eye of the control group rabbit and the intraocular pressure was measured. As mentioned above, the measurement of intraocular pressure was carried out before instillation and after 0.5, 1, 2, 3, 4 and 6 hours from instillation, and the effect on the intraocular pressure was shown as the difference from pre-instillation (ΔIOP, mmHg, mean±standard error).

T1 sequence (P29274 whole entry): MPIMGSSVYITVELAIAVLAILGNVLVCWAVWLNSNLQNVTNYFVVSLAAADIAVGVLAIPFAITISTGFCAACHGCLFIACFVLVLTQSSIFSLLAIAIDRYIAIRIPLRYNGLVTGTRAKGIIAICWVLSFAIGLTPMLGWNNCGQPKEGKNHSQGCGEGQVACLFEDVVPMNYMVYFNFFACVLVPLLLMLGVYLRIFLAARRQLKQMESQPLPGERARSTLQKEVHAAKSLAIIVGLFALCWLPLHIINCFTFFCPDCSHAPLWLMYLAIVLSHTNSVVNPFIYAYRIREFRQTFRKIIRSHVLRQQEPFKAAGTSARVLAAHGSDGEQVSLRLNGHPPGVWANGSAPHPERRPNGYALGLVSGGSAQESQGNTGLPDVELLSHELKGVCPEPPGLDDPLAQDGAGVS

On to `CCN1CCN(CC2CN(C(=O)CCc3cccc(CSc4nc(N)c(C#N)c(-c5ccc(NC(C)=O)cc5)n4)n3)CCO2)CC1.Cl` (centres unmarked) [Example 72, N-{4-[6-amino-5-cyano-2-(6-{3-[2-(4-ethyl-piperazin-1-ylmethyl)morpholin-4-yl]-3-oxopropyl}pyridin-2-ylmethylsulfanyl)pyrimidin-4-yl]phenyl}acetamide hydrochloride], for which the EC50 in test [1] is 13.6 nM. For the same molecule, the “ΔIOP (mmHg)” value in test [2] (0.5 hr after instillation) is reported as −1.9 ± 0.6 mmHg; in test [2] (1 hr after instillation) it was −5.3 ± 0.6 mmHg; in test [2] (2 hr after instillation) it was −4.7 ± 0.6 mmHg; in test [2] (3 hr after instillation) it was −5.0 ± 0.7 mmHg; in test [2] (4 hr after instillation), −4.0 ± 1.0 mmHg; in test [2] (6 hr after instillation), −1.9 ± 0.9 mmHg.
Consider `CC(=O)Nc1ccc(-c2nc(SCc3cccc(CCC(=O)N4CCCN(C)CC4)n3)nc(N)c2C#N)cc1.Cl` [Example 80, N-[4-(6-amino-5-cyano-2-{6-[3-(4-methyl-[1,4]diazepan-1-yl)-3-oxopropyl]pyridin-2-ylmethyl-sulfanyl}pyrimidin-4-yl)phenyl]acetamide hydrochloride], for which the EC50 in test [1] turned out to be 2.4 nM. The “ΔIOP (mmHg)” value is −0.9 ± 1.3 mmHg in test [2] (0.5 hr after instillation); −5.0 ± 1.0 mmHg in test [2] (1 hr after instillation); −5.9 ± 0.7 mmHg in test [2] (2 hr after instillation); −4.9 ± 0.5 mmHg in test [2] (3 hr after instillation); −5.0 ± 0.8 mmHg in test [2] (4 hr after instillation); −1.8 ± 0.8 mmHg in test [2] (6 hr after instillation).
For the molecule `CCN(CC)CCNC(=O)CCc1cccc(CSc2nc(N)c(C#N)c(-c3ccc(NC(C)=O)cc3)n2)n1.Cl` [Example 66, 3-{6-[4-(4-acetylaminophenyl)-6-amino-5-cyanopyrimidin-2-ylsulfanylmethyl]pyridin-2-yl}-N-(2-diethylaminoethyl)propionamide hydrochloride salt], the EC50 in test [1] is 5.2 nM. In addition, the “ΔIOP (mmHg)” value is recorded as −1.3 ± 0.9 mmHg in test [2] (0.5 hr after instillation); −4.0 ± 0.6 mmHg in test [2] (1 hr after instillation); −5.5 ± 0.7 mmHg in test [2] (2 hr after instillation); −5.0 ± 0.5 mmHg in test [2] (3 hr after instillation); −3.7 ± 0.5 mmHg in test [2] (4 hr after instillation); −1.8 ± 0.5 mmHg in test [2] (6 hr after instillation).
Take `CC(=O)Nc1ccc(-c2nc(SCc3cccc(CCC(=O)N4CCN(CCN5CCOCC5)CC4)n3)nc(N)c2C#N)cc1.Cl` [Example 78, N-{4-[6-amino-5-cyano-2-(6-{3-[4-(2-morpholin-4-ylethyl)piperazin-1-yl]-3-oxopropyl}pyridin-2-ylmethylsulfanyl)pyrimidin-4-yl]phenyl}acetamide hydrochloride]: the EC50 in test [1] was determined as 6 nM. For the same molecule, the “ΔIOP (mmHg)” value in test [2] (0.5 hr after instillation) is 0.6 ± 0.5 mmHg; in test [2] (1 hr after instillation), −3.3 ± 0.4 mmHg; in test [2] (2 hr after instillation), −4.4 ± 0.6 mmHg; in test [2] (3 hr after instillation), −4.3 ± 0.9 mmHg; in test [2] (4 hr after instillation), −5.4 ± 0.7 mmHg; in test [2] (6 hr after instillation) it was −3.2 ± 0.9 mmHg.
Take `CC(=O)Nc1ccc(-c2nc(SCc3cccc(CCC(=O)N(C)C4CCN(C)CC4)n3)nc(N)c2C#N)cc1.Cl` [Example 67, 3-{6-[4-(4-acetylaminophenyl)-6-amino-5-cyanopyrimidin-2-ylsulfanylmethyl]pyridin-2-yl}-N-methyl-N-(1-methylpiperidin-4-yl)propionamide hydrochloride]: the EC50 in test [1] is 6.8 nM. For the same molecule, the “ΔIOP (mmHg)” value in test [2] (0.5 hr after instillation) is given as −1.1 ± 1.0 mmHg; in test [2] (1 hr after instillation), −5.3 ± 0.7 mmHg; in test [2] (2 hr after instillation), −4.6 ± 0.7 mmHg; in test [2] (3 hr after instillation) it was −4.6 ± 0.9 mmHg; in test [2] (4 hr after instillation), −4.2 ± 0.7 mmHg; in test [2] (6 hr after instillation), −2.0 ± 0.7 mmHg.
For `CC(=O)Nc1ccc(-c2nc(SCc3cccc(CCC(=O)N(C)CC(C)N(C)C)n3)nc(N)c2C#N)cc1.Cl` (centres unmarked) [Example 64, 3-{6-[4-(4-acetylaminophenyl)-6-amino-5-cyanopyrimidin-2-ylsulfanylmethyl]pyridin-2-yl}-N-(2-dimethylaminopropyl)-N-methylpropionamide hydrochloride], in test [1], the EC50 came out at 4.3 nM. Moreover, the “ΔIOP (mmHg)” value is −2.7 ± 0.7 mmHg in test [2] (0.5 hr after instillation); −4.9 ± 0.5 mmHg in test [2] (1 hr after instillation); −3.8 ± 0.8 mmHg in test [2] (2 hr after instillation); −3.2 ± 0.9 mmHg in test [2] (3 hr after instillation); −4.0 ± 0.7 mmHg in test [2] (4 hr after instillation); −1.8 ± 0.4 mmHg in test [2] (6 hr after instillation).
`CC(=O)Nc1ccc(-c2nc(SCc3cccc(CCC(=O)NCCN)n3)nc(N)c2C#N)cc1` [Example 60, 3-{6-[4-(4-acetylaminophenyl)-6-amino-5-cyanopyrimidin-2-ylsulfanylmethyl]pyridin-2-yl}-N-(2-aminoethyl)propionamide hydrochloride]: the EC50 in test [1] came to 2.8 nM.
Turning to `CC(=O)Nc1ccc(-c2nc(SCc3cccc(CN4CCN(C(=O)OC(C)(C)C)CC4)n3)nc(N)c2C#N)cc1` [Example 17, t-butyl 4-{6-[4-(4-acetylaminophenyl)-6-amino-5-cyanopyrimidin-2-ylsulfanyl-methyl]-pyridin-2-ylmethyl}piperazine-1-carboxylate], in test [1], the EC50 came to 6.8 nM.
Turning to `CC(=O)Nc1ccc(-c2nc(SCc3cccc(CCC(=O)N4CCCCC4CO)n3)nc(N)c2C#N)cc1` (centres unmarked) [Example 70, N-[4-(6-amino-5-cyano-2-{6-[3-(2-hydroxymethylpiperidin-1-yl)-3-oxopropyl]pyridin-2-ylmethylsulfanyl}pyrimidin-4-yl)phenyl]acetamide hydrochloride], the EC50 in test [1] came to 8.8 nM.
The same measure, in the same setting: the same measure for `C=CC(=O)Nc1ccc(-c2nc(SCc3cccc(C)n3)nc(N)c2C#N)cc1` [Example 10, N-{4-[6-amino-5-cyano-2-(6-methylpyridin-2-ylmethylsulfanyl)pyrimidin-4-yl]phenyl}acrylamide]: 19.1 nM; for `COC(=O)Nc1ccc(-c2nc(SCc3cccc(C)n3)nc(N)c2C#N)cc1` [Example 13, methyl {4-[6-amino-5-cyano-2-(6-methylpyridin-2-ylmethylsulfanyl)pyrimidin-4-yl]phenyl}-carbamate]: 13.5 nM; for `CC(=O)Nc1ccc(-c2nc(SCc3cccc(CCC(=O)N4CCNCC4)n3)nc(N)c2C#N)cc1` [Example 74, N-(4-{6-amino-5-cyano-2-[6-(3-oxo-3-piperazin-1-ylpropyl)pyridin-2-ylmethylsulfanyl]-pyrimidin-4-yl}phenyl)acetamide hydrochloride]: 2.5 nM.
The same measure, in the same setting: under `CC(=O)Nc1ccc(-c2nc(SCc3cccc(CCC(=O)OC(C)(C)C)n3)nc(N)c2C#N)cc1` [Example 42, t-butyl 3-{6-[4-(4-acetylaminophenyl)-6-amino-5-cyanopyrimidin-2-ylsulfanyl-methyl]pyridin-2-yl}propionate] stands 10 nM; under `CCCC(=O)Nc1ccc(-c2nc(SCc3cccc(C)n3)nc(N)c2C#N)cc1` [Example 11, N-{4-[6-amino-5-cyano-2-(6-methylpyridin-2-ylmethylsulfanyl)pyrimidin-4-yl]phenyl}butylamide], 395 nM.
